# Source: patent US11104648B2, “Pyrazole derivative” (Zhejiang Research Institute of Chemical Industry Co., Ltd., priority 2018, dated 2021)
# Read-outs that look alike come from different tables or passages of the source.
# How the values were obtained:
# Assay type in all cases: in vivo
# [1] = tested on: Eggs of Tetranychus Cinnabarinus; assay: Activity assay of eggs of Tetranychus cinnabarinus (spray method, ovicidal); conditions: Tetranychus cinnabarinus; for pest or weed control at 2 µg/mL: concentration 2 mg/L
# In short: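 Female mites laid eggs on broad bean leaves for 24 h, adults removed, eggs sprayed with compound in DMF (≤10%)/1‰ Tween 80. Held at 26±2° C, 70–80% humidity, 16 h light; unhatched eggs counted dead once blank control hatched. Three replicates.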
# [2] = tested on: adult Tetranychus cinnabarinus; assay: Activity assay of adult Tetranychus cinnabarinus (whole-plant spray on bean seedlings); conditions: 48 h; for pest or weed control at 1.25 µg/mL: concentration 1.25 mg/L
# In short: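 Bean seedlings at two-true-leaf stage, infested with adult mites and base count taken, sprayed whole-plant with compound in DMF (≤10%) diluted in 1‰ Tween 80. Three replicates per treatment kept in standard observation room. Surviving mites counted at 48 h to give death rate.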
# [3] = tested on: Tetranychus cinnabarinus Nymphs; assay: Activity assay of Tetranychus cinnabarinus nymphs (spray on broad bean leaves)
# In short: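 Compound in DMF (≤10%) diluted in 1‰ Tween 80 water was sprayed onto broad bean leaves carrying nymphs hatched from eggs laid by female adults over 24 h. Kept at 26±2° C., 70%–80% humidity, 16 h light; mortality (no response to touch) assessed after 48 h, three replicates with blank control.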
# [4] = spray, read-out: ovicidal activity
# [5] = concentration 5 mg/L, spray, non-incubated eggs counted as dead, read-out: ovicidal activity
# [6] = read-out: adult mite-killing activity
# [7] = concentration 2.5 mg/L, read-out: adult mite-killing activity
# [8] = 48 h, concentration 2 mg/L, read-out: nymph-killing activity
# [9] = 48 h, concentration 2.5 mg/L, read-out: nymph-killing activity
# [10] = eggs, parallel determination, read-out: Death rate (%)
# [11] = adult mites, parallel determination, read-out: Death rate (%)
# [12] = 48 h, nymphs, concentration 0.5 mg/L, parallel determination, read-out: Death rate (%)
Compound,"pest or weed control at 5 µg/mL [1, 5] [%]","pest or weed control at 2.5 µg/mL [2, 7] [%]","pest or weed control at 2.5 µg/mL [3, 9] [%]",other results
CCn1nc(C)cc1/C(OC(C)OC(=O)C1CC1)=C(\C#N)c1ccc(C(C)(C)C)cc1 (centres unmarked) [Compound 259],≥ 90,≥ 90,≥ 95,"pest or weed control at 2 µg/mL [1, 4]: ≥ 90%; pest or weed control at 1.25 µg/mL [2, 6]: ≥ 90%; pest or weed control at 2 µg/mL [3, 8]: ≥ 90%"
Cc1nn(C)c(/C(OCOC(=O)c2ccccc2)=C(\C#N)c2ccc(C(C)(C)C)cc2)c1Cl [Compound 89],≥ 90,≥ 90,≥ 95,–
COCC(=O)OC(C)O/C(=C(/C#N)c1ccc(C(C)(C)C)cc1)c1c(C)c(C)nn1C (centres unmarked) [Compound 183],≥ 90,≥ 90,≥ 95,–
CCCOC(=O)OCO/C(=C(/C#N)c1ccc(C(C)(C)C)cc1)c1c(C)c(C)nn1CC [Compound 933],≥ 90,≥ 90,≥ 95,"pest or weed control at 2 µg/mL [1, 4]: ≥ 90%; pest or weed control at 1.25 µg/mL [2, 6]: ≥ 90%; pest or weed control at 2 µg/mL [3, 8]: ≥ 90%"
CCSC(=O)OCO/C(=C(/C#N)c1ccc(C(C)(C)C)cc1)c1cc(C)nn1CC [Compound 576],≥ 90,≥ 90,≥ 95,–
CCn1nc(C)cc1/C(OC(C)OC(=O)OCCCl)=C(\C#N)c1ccc(C(C)(C)C)cc1 (centres unmarked) [Compound 590],≥ 90,≥ 90,≥ 95,–
CCCCOC(=O)OC(C)O/C(=C(/C#N)c1ccc(C(C)(C)C)cc1)c1cc(C)nn1C (centres unmarked) [Compound 488],≥ 90,≥ 90,≥ 95,–
Cc1cc(/C(OCOC(=O)C(C)(C)C)=C(\C#N)c2ccc(C(C)(C)C)cc2)n(C)n1 [Compound 5],≥ 90,≥ 90,≥ 95,–
CCOC(=O)OC(C)O/C(=C(/C#N)c1ccc(C(C)(C)C)cc1)c1c(Cl)c(C)nn1CC (centres unmarked) [Compound 772],≥ 90,≥ 90,≥ 95,"pest or weed control at 2 µg/mL [1, 4]: ≥ 90%; pest or weed control at 2 µg/mL [1, 10]: 100%; pest or weed control at 1.25 µg/mL [2, 11]: 100%; pest or weed control at 1.25 µg/mL [2, 6]: ≥ 90%; pest or weed control at 2 µg/mL [3, 8]: ≥ 90%; pest or weed control at 0.5 µg/mL [3, 12]: 90%"
Cc1nn(C)c(/C(OCOC(=O)C2CCCCC2)=C(\C#N)c2ccc(C(C)(C)C)cc2)c1C [Compound 161],≥ 90,≥ 90,≥ 95,–
C=CC(=O)OC(C)O/C(=C(/C#N)c1ccc(C(C)(C)C)cc1)c1cc(C)nn1CC (centres unmarked) [Compound 267],≥ 90,≥ 90,≥ 95,–
COCCOC(=O)OC(C)O/C(=C(/C#N)c1ccc(C(C)(C)C)cc1)c1cc(C)nn1C (centres unmarked) [Compound 500],≥ 90,≥ 90,≥ 95,–
CCn1nc(C)cc1/C(OCOC(=O)OC(C)C)=C(\C#N)c1ccc(C(C)(C)C)cc1 [Compound 550],≥ 90,≥ 90,≥ 95,"pest or weed control at 2 µg/mL [1, 4]: ≥ 90%; pest or weed control at 1.25 µg/mL [2, 6]: ≥ 90%; pest or weed control at 2 µg/mL [3, 8]: ≥ 90%"
Cc1nn(C)c(/C(OCOC(=O)C2CCCCC2)=C(\C#N)c2ccc(C(C)(C)C)cc2)c1Cl [Compound 86],≥ 90,≥ 90,≥ 95,–
CCC(C)(C)C(=O)OC(C)O/C(=C(/C#N)c1ccc(C(C)(C)C)cc1)c1c(C)c(C)nn1C (centres unmarked) [Compound 191],≥ 90,≥ 90,≥ 95,–
CCOC(=O)OCO/C(=C(/C#N)c1ccc(C(C)(C)C)cc1)c1c(C)c(C)nn1CC [Compound 932],≥ 90,≥ 90,≥ 95,"pest or weed control at 2 µg/mL [1, 4]: ≥ 90%; pest or weed control at 2 µg/mL [1, 10]: 97%; pest or weed control at 1.25 µg/mL [2, 11]: 90%; pest or weed control at 1.25 µg/mL [2, 6]: ≥ 90%; pest or weed control at 2 µg/mL [3, 8]: ≥ 90%"
CCSC(=O)OCO/C(=C(/C#N)c1ccc(C(C)(C)C)cc1)c1cc(C)nn1C [Compound 480],≥ 90,≥ 90,≥ 95,–
CCn1nc(C)cc1/C(OC(C)OC(=O)OCCOC)=C(\C#N)c1ccc(C(C)(C)C)cc1 (centres unmarked) [Compound 596],≥ 90,≥ 90,≥ 95,–

Compound,"pest or weed control at 5 µg/mL [1, 5] [%]","pest or weed control at 2.5 µg/mL [2, 7] [%]","pest or weed control at 2.5 µg/mL [3, 9] [%]",other results
CCn1nc(C)c(Cl)c1/C(OC(C)OC(=O)C(C)(C)CC)=C(\C#N)c1ccc(C(C)(C)C)cc1 (centres unmarked) [Compound 341],≥ 90,≥ 90,≥ 95,–
CCn1nc(C)cc1/C(OCOC(=O)C(C)(C)C)=C(\C#N)c1ccc(C(C)(C)C)cc1 [Compound 230],≥ 90,≥ 90,≥ 95,"pest or weed control at 2 µg/mL [1, 4]: ≥ 90%; pest or weed control at 2 µg/mL [1, 10]: 100%; pest or weed control at 1.25 µg/mL [2, 11]: 100%; pest or weed control at 1.25 µg/mL [2, 6]: ≥ 90%; pest or weed control at 2 µg/mL [3, 8]: ≥ 90%; pest or weed control at 0.5 µg/mL [3, 12]: 98%"
CCCCOC(=O)OCO/C(=C(/C#N)c1ccc(C(C)(C)C)cc1)c1cc(C)nn1CC [Compound 552],≥ 90,≥ 90,≥ 95,–
CCCC(=O)OC(C)O/C(=C(/C#N)c1ccc(C(C)(C)C)cc1)c1c(Cl)c(C)nn1CC (centres unmarked) [Compound 328],≥ 90,≥ 90,≥ 95,–
Cc1nn(C)c(/C(OC(C)OC(=O)C(F)(F)F)=C(\C#N)c2ccc(C(C)(C)C)cc2)c1Cl (centres unmarked) [Compound 113],≥ 90,≥ 90,≥ 95,–
Cc1nn(C)c(/C(OCOC(=O)C(F)(F)F)=C(\C#N)c2ccc(C(C)(C)C)cc2)c1C [Compound 163],≥ 90,≥ 90,≥ 95,–
CCn1nc(C)c(C)c1/C(OC(C)OC(=O)CF)=C(\C#N)c1ccc(C(C)(C)C)cc1 (centres unmarked) [Compound 412],–,–,–,"pest or weed control at 5 µg/mL ([1]; read-out: ovicidal activity): ≥ 90%; pest or weed control at 2.5 µg/mL [2, 6]: ≥ 90%; pest or weed control at 2.5 µg/mL ([3]; 48 h, read-out: nymph-killing activity): ≥ 95%"
Cc1nn(C)c(/C(OCOC(=O)C(C)C)=C(\C#N)c2ccc(C(C)(C)C)cc2)c1C [Compound 154],≥ 90,≥ 90,≥ 95,–
CCn1nc(C)cc1/C(OC(C)OC(=O)c1ccccc1)=C(\C#N)c1ccc(C(C)(C)C)cc1 (centres unmarked) [Compound 264],≥ 90,≥ 90,≥ 95,–
CCCC(=O)OCO/C(=C(/C#N)c1ccc(C(C)(C)C)cc1)c1cc(C)nn1CC [Compound 228],≥ 90,≥ 90,≥ 95,–
CCn1nc(C)cc1/C(OCOC(=O)C1CCCCC1)=C(\C#N)c1ccc(C(C)(C)C)cc1 [Compound 236],≥ 90,≥ 90,≥ 95,–
CCOC(=O)OC(C)O/C(=C(/C#N)c1ccc(C(C)(C)C)cc1)c1cc(C)nn1CC (centres unmarked) [Compound 580],≥ 90,≥ 90,≥ 95,"pest or weed control at 2 µg/mL [1, 4]: ≥ 90%; pest or weed control at 1.25 µg/mL [2, 6]: ≥ 90%; pest or weed control at 2 µg/mL [3, 8]: ≥ 90%"
Cc1nn(C)c(/C(OC(C)OC(=O)c2ccccc2)=C(\C#N)c2ccc(C(C)(C)C)cc2)c1Cl (centres unmarked) [Compound 114],≥ 90,≥ 90,≥ 95,–
CCn1nc(C)c(C)c1/C(OC(C)OC(=O)c1ccccc1)=C(\C#N)c1ccc(C(C)(C)C)cc1 (centres unmarked) [Compound 414],≥ 90,≥ 90,≥ 95,–
CCn1nc(C)c(C)c1/C(OC(C)OC(=O)C(C)(C)C)=C(\C#N)c1ccc(C(C)(C)C)cc1 (centres unmarked) [Compound 405],≥ 90,≥ 90,≥ 95,"pest or weed control at 2 µg/mL [1, 4]: ≥ 90%; pest or weed control at 1.25 µg/mL [2, 6]: ≥ 90%; pest or weed control at 2 µg/mL [3, 8]: ≥ 90%"
CCn1nc(C)c(C)c1/C(OCOC(=O)Cc1ccccc1)=C(\C#N)c1ccc(C(C)(C)C)cc1 [Compound 390],≥ 90,≥ 90,–,"pest or weed control at 2.5 µg/mL ([3]; concentration 2.5 mg/L, 48 h, read-out: nymph-killing activity): ≥ 95%"
CCCCC(=O)OC(C)O/C(=C(/C#N)c1ccc(C(C)(C)C)cc1)c1cc(C)nn1C (centres unmarked) [Compound 31],≥ 90,≥ 90,≥ 95,–
